Measured values as given in publication PMC7615676, “Short-course combination treatment for experimental chronic Chagas disease” (Science translational medicine, 2023).
Values after ≈ are worked out from the molar mass of the structure shown. Read-outs that look alike come from different tables or passages of the source.

What was measured:
[1] = test system: chronic T. cruzi infection (CL Brener) in BALB/c mice; experiment: bioluminescent mouse model of chronic Chagas disease; type: in vivo, Trypanosoma cruzi; details: for No. cured/ no. tested: 50 mg/kg bid oral
Method: Compound 2 was evaluated in a bioluminescent mouse model of Chagas disease designed to mimic chronic infections. This model successfully differentiates the clinically used drugs from the clinically invalidated CYP51 inhibitors ([21]). Key features of this model include immunosuppression of mice following cessation of treatment to allow detection of parasite relapses, and ex vivo bioluminescence imaging that allows tissue-specific visualization of parasites. Treatments are considered efficacious if there is no evidence of bioluminescence during in vivo (mouse) and ex vivo (organ/tissue) imaging following immunosuppression ([38]). Under these experimental conditions, compound 2 was able to prevent parasite relapse in 2 of the 6 mice treated orally twice daily for 10 days at 50 mg/kg (Table S1). Increasing the dose to 100 mg/kg or extending treatment duration to 21 days provided similar partial efficacy rates.
Experiments followed a similar protocol to that described in ([21]). All animals were female (BALB/cAnNCrlC mice, 6-8 weeks old, strain code: 028, supplier: Charles River (UK)). We have previously shown that there are no differences in the bioluminescence profiles between infected males and females ([77]). Animals were maintained under specific pathogen-free conditions in individually ventilated cages. They experienced a 12-hour light/dark cycle, with access to food and water ad libitum. Mice were randomly selected and distributed into cages on arrival day by a Named Animal Care and Welfare Officer (NACWO), at LSHTM biological service facility (BSF). For efficacy experiments animals were randomly selected from the cages and ear/tail tagged on the infection day, starting from number 1. The same mouse ID was kept until the experimental endpoint. Mice were infected by i.p injection with 1x10^3 trypomastigotes derived from SCID mouse blood ([67]). To confirm infection, mice were imaged around the peak of parasite load. […] Treatment initiated in the chronic stage of infection ranging between 90 and 127 days post-infection. Drugs were administered by oral gavage (~200 μl), and vehicle only (0.5% w/v hydroxypropylmethylcellulose with 0.4% v/v Tween 80 and 0.5% v/v benzyl alcohol) was administered to control mice. Total number of animals for each study arm is shown in the relevant figures. To detect residual infection, mice were immunosuppressed using cyclophosphamide (at 200 mg/kg) by ip injection every 4 days for a maximum of three doses. For in vivo imaging, mice were injected ip with 150 mg/kg D-luciferin in Dulbecco’s Ca^2+/Mg^2+-free PBS, then anaesthetized using 2.5% (v/v) isofluorane in oxygen. Images were obtained using an IVIS Lumina II system (Caliper Life Science) 10−20 min after D-luciferin administration. The detection threshold was established from uninfected mice. Organs/tissue samples were assessed by ex vivo imaging as described previously ([21]). The limit of detection in this system is less than 20 parasites ([29]).

[2] = kinetic aqueous solubility (CLND); type: physicochemical; details: phosphate buffered saline, aqueous buffer, kinetic from dmso stock, pH 7.4
Method: The eluent is quantified by suitably calibrated flow injection CLND. This assay has a dynamic range between the lower detection limit of 1 and 500 μM, governed by the protocol’s 1:20 dilution into pH 7.4 phosphate buffer solution from nominal 10 mM DMSO stock.

[3] = bioanalysis of blood samples from in vivo efficacy studies; parameters: species or system BALB/c mice; details: for AUC0-7h Day 1, unbound concentrations of compound 3 / AUC0-7h Day 5, unbound concentrations of compound 3 / Cmax Day 1, unbound concentrations of compound 3 / Cmax Day 5, unbound concentrations of compound 3: 50mg/kg bid, 5 days; for AUC(0-t) / Cmax: BALB/c, mouse, whole blood, po, 50 mg/kg, compound 3 50mg/kg bid
Method: Following the first daily dose on day 1 and last day of treatment, serial blood samples were taken by the tail vein from all treated mice pre-dose, then 30 minutes, 1, 2, 4, and 8 hours post-dose, mixed with two volumes of distilled water and analyzed for test compound. Quantification of compounds was performed by means of LC/MSMS and exposure parameters namely Cmax and AUClast were estimated using Phoenix 64 (Pharsight Certara).

[4] = test system: chronic T. cruzi infection (CL Brener) in BALB/c mice; experiment: bioluminescent mouse model of chronic Chagas disease; type: in vivo, Trypanosoma cruzi; details: 5 days
[5] = test system: T. cruzi epimastigotes bearing mutations in cytochrome b; experiment: epimastigote drug sensitivity assay, cytochrome b mutant / resistant lines; type: cell-based, Trypanosoma cruzi; details: for EC50: Trypanosoma cruzi
Method: T. cruzi epimastigotes from the Silvio strain (MHOM/BR/78/Silvio; clone X10/7A) were grown at 28°C in RTH/FBS medium ([80]).
T. cruzi epimastigote assays carried out as described previously ([43]).
Compound-resistant cell lines were generated by subculturing clones of wild-type T. cruzi epimastigotes in the continuous presence of compound 3 or compound 5. Starting at sublethal concentrations, drug concentrations in 3 independent cultures were increased in a stepwise manner, usually by 2-fold. When parasites were able to survive and grow in compound concentrations equivalent to >30-fold their established EC50 value, they were cloned by limiting dilution in the presence of compound. Three independent clones were selected from each compound for further study.

HepG2 cells = experiment: general cytotoxicity assay in HepG2 cells; type: cell-based; details: Homo sapiens, HepG2, 48 h, CellTiter-Glo
Method: This assay was previously described ([36]). Briefly, actively growing HepG2 cells were removed from a T-175 TC flask using 5 ml Eagle’s MEM (containing 10 % FBS, 1 % NEAA, 1 % penicillin/ streptomycin. Carbon source is D-glucose at 1 g/l) and dispersed in the medium by repeated pipetting. Seeding density was checked to ensure that new monolayers were not more than 50 % confluent at the time of harvesting. Cell suspension was added to 500 ml of the same medium at a final density of 1.2 x 10^5 cells/ml. This cell suspension was dispensed (25 μl, 3000 cells per well) into 384-well clear-bottom plates using a Multidrop Combi dispenser. Prior to addition of the cell suspension, the screening compounds (250 nl) were predispensed into the plates with an EchoH liquid handler. Plates were incubated for 48 h at 37°C, 5% CO2. After incubation, plates equilibrated at room temperature for 30 min before proceeding to develop the luminescent signal. The signal developer, CellTiter-Glo Reagent, was allowed to equilibrate at room temperature for 30 min and added to the plates ([…]) using a Multidrop Combi dispenser. Plates were left for 10 min at room temperature for stabilization and then read using a ViewLux.

[6] = dosing group 3 + BNZ (30mg/kg qd)

Structure (SMILES): COc1cc(Cl)ccc1-c1c(C)[nH]c2nc(N)nc(C)c12 [Compound 3, 5-(4-Chloro-2-methoxyphenyl)-4,6-dimethyl-7H-pyrrolo[2,3-d]pyrimidin-2-amine]
- No. cured/ no. tested ([1]; 10 days): 4/6
- No. cured/ no. tested ([1]; 20 days (changed to 11 bid + 9 qd)): 2/6
- tolerability in infected mice ([1]; 50 mg/kg bid, 20-day regimen): tolerability issues
- solubility at 1 h [2]: 103 µg/mL (≈ 340 µM)
- AUC0-7h Day 1, unbound concentrations of compound 3 [3, 6]: 2234 ± 509 ng·h/mL
- AUC0-7h Day 5, unbound concentrations of compound 3 [3, 6]: 5525 ± 663 ng·h/mL
- Cmax Day 1, unbound concentrations of compound 3 [3, 6]: 412 ± 88 ng/mL
- Cmax Day 5, unbound concentrations of compound 3 [3, 6]: 977 ± 129 ng/mL
- AUC0-7h Day 1, unbound concentrations of compound 3 ([3]; dosing group 3 alone): 3024 ± 619 ng·h/mL
- AUC0-7h Day 5, unbound concentrations of compound 3 ([3]; dosing group 3 alone): 6094 ± 870 ng·h/mL
- Cmax Day 1, unbound concentrations of compound 3 ([3]; dosing group 3 alone): 530 ± 95 ng/mL
- Cmax Day 5, unbound concentrations of compound 3 ([3]; dosing group 3 alone): 1014 ± 185 ng/mL
- AUC(0-t) ([3]; 10-day study, read-out: AUC0-7h Day 1): 1800 ± 243 ng·h/mL
- AUC(0-t) ([3]; 10-day study, read-out: AUC0-7h last day): 7790 ± 1560 ng·h/mL
- Cmax ([3]; 10-day study, read-out: Cmax Day 1): 325 ± 59 ng/mL
- Cmax ([3]; 10-day study, read-out: Cmax last day): 1250 ± 259 ng/mL
- AUC(0-t) ([3]; 20-day study, read-out: AUC0-7h Day 1): 2740 ± 388 ng·h/mL
- AUC(0-t) ([3]; 20-day study, read-out: AUC0-7h last day): 4920 ± 479 ng·h/mL
- Cmax ([3]; 20-day study, read-out: Cmax Day 1): 480 ± 69 ng/mL
- Cmax ([3]; 20-day study, read-out: Cmax last day): 810 ± 75 ng/mL
- 95% confidence interval for no-relapse ([4]; Fig. 3, compound 3 50 mg/kg bid): 0.19 − 0.81
- animals relapsed ([4]; compound 3 monotherapy 50 mg/kg bid, oral): three out of six
- EC50 ([5]; read-out: EC50 F222L): 1120 ± 63 nM
- EC50 ([5]; read-out: EC50 G36C/L197F cytb line): 3 ± 0.1 nM
- EC50 ([5]; read-out: EC50 G36C/L197I cytb line): 258 ± 7 nM
- EC50 ([5]; read-out: EC50 L197F cytb line): 3.7 ± 0.1 nM
- EC50 ([5]; read-out: EC50 L197I): 115 ± 7 nM
- EC50 ([5]; read-out: EC50 compound 3-resistant clone RES1): 107 ± 5.4 nM
- EC50 ([5]; read-out: EC50 compound 3-resistant clone RES3): 166 ± 14 nM
- fold change from WT, L197I ([5]; compound 3-resistant line (L197I)): 19 fold
- fold change from WT, F222L ([5]; compound 5-resistant line (F222L)): 183 fold
- cross-resistance of G36C and L197I epimastigotes ([5]; versus wild-type): 23 fold
- EC50 (HepG2 cells; read-out: HepG2 EC50): 79000 nM
- EC50 (HepG2 cells; read-out: HepG2 pEC50 (converted)): 79400 nM
